Patent US10766914B2, “DNA alkylating agents” (OBI PHARMA, INC., priority 2015, dated 2020)
Read-outs that look alike come from different tables or passages of the source.

What was measured:
H460 cells = assay: Proliferation assay in H460 cells (2 hr exposure, AlamarBlue); format: cell-based, human; conditions: Homo sapiens, NCI-H460, 2 hrs exposure, wash, 70 hrs growth, read-out: IC 50 in proliferation assay in H460 cells
Outline: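 H460 cells seeded at 4×10^3/well, grown 24 h, then exposed to compound for 2 h at 37 °C. Drug was washed off and cells were regrown 70 h in fresh medium. Viable cells were read by AlamarBlue, and IC50 was taken as the concentration giving 50% growth inhibition.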

[1] = system: A 549 non-small cell lung xenograft; assay: Example 4-B antitumor efficacy, ectopic A549 NSCLC xenograft model; format: in vivo, female nude mice (nu/nu); conditions: 10 mg/kg ip QD × 5/wk × 2 wks
From the text: (§1) Specific pathogen-free homozygous female nude mice (nu/nu, Charles River Laboratories) were used. Mice were given food and water ad libitum and housed in microisolator cages. Four to six week old animals were identified by microchips (Locus Technology, Manchester, Md., USA) at the time of the experiments. All animal studies were approved by the Institutional Animal Care and Use Committee at Threshold Pharmaceuticals, Inc.
(§2) All cell lines were from the American Type Culture Collection (ATCC, Rockville, Md., USA).
(§3) Cells were mixed with Matrigel (50% with exception for 30% in the H460) and 0.2 ml per mouse were subcutaneously implanted to the flank area of the animals. When tumor size reached 100-150 250 mm3, mice were randomized into experimental or vehicle groups with 10 mice/group and treatment was started (Day 1). The tested compounds were formulated in 5% DMSO in D5W. The regimens employed in the examples include IP, QD×5/wk (5 days on, 2 days off) as one cycle, for a total of 2 cycles; IP, once; IP, weekly for total 3 weeks; and IV, weekly for 3 weeks. Tumor growth and body weight were measured twice a week. Tumor volume was calculated as (length×width2)/2. Drug efficacy was assessed as Tumor Growth Inhibition (TGI) and Tumor Growth Delay (TGD). TGI was defined as (1−ΔT/ΔC)×100, where ΔT/ΔC presented the ratio of the change in mean (or median, if variation within the group was relatively large) tumor volume of the treated group and of the control group. TGD was calculated as the extra days for the treated tumor to reach 500 mm3 or 1000 mm3 as compared to the control group. Animals were culled when individual tumor size reached over 2000 mm3 or mean tumor volume exceeded 1000 mm3 in the group. Data are expressed as the mean±SEM. One-way analysis of variance with Dunnett post comparison test (GraphPad Prism 4) or two-tailed student's t-test were used for analysis. A P level <0.05 was considered statistically significant.
The dosing was as follows. Daily IP dosing: 5 doses then 2 days off then 5 more doses starting at 110 mm^3 tumors on day 1 (10 animals per group average tumor volume).
Doses were selected by first doing a toxicity test in CD1 mice as described above. The compounds were tested against Thio-tepa.

[2] = Example 4-B body weight change, A549 xenograft study; format: in vivo, female nude mice (nu/nu); conditions: 10 mg/kg ip QD × 5/wk × 2 wks
Description: as §3
Antitumor effects of compounds provided herein were determined on A 549 non-small cell lung xenograft model in comparison with a chemotherapy agent, thiotepa. The dosing was as follows. Daily IP dosing: 5 doses then 2 days off then 5 more doses starting at 110 mm^3 tumors on day 1 (10 animals per group average tumor volume). The antitumor effects and the safety of administration are graphically illustrated below.

[3] = system: A375 melanoma human tumor xenograft; assay: Example 4-C antitumor efficacy, ectopic A375 melanoma xenograft model; format: in vivo, female nude mice (nu/nu); conditions: qd × 5 × 2, ip
From the text: as §1, §2, §3
his study employed an A375 melanoma human tumor xenograft model and various compounds provided herein were compared to thiotepa and the approved anti melanoma drug, nab-Paclitaxel.

[4] = Example 4-C body weight change, A375 xenograft study; format: in vivo, female nude mice (nu/nu); conditions: 10 mpk, qd × 5 × 2, ip
Description: as §3
his study employed an A375 melanoma human tumor xenograft model and various compounds provided herein were compared to thiotepa and the approved anti melanoma drug, nab-Paclitaxel. The antitumor effects and the safety of administration are graphically illustrated below.

H460 NSCLC xenograft [5] = assay: Example 4-I antitumor efficacy, ectopic H460 NSCLC xenograft model; format: in vivo, female nude mice (nu/nu); conditions: 10 mg/kg, iv, Q7D × 3
From the text: as §1, §2, §3
(§4) The compound TH-2870 was tested in a H460 model. The compound was dosed follows. 1.5, 5 or 15 mg/kg, IV, weekly for 3 weeks at 250 mm^3 tumors on day 1 (10 animals per group average tumor volume), comparing with docetaxel. The antitumor effects and the safety of administration are graphically illustrated below.

[6] = Example 4-I body weight change, H460 xenograft study; format: in vivo, female nude mice (nu/nu); conditions: 10 mg/kg, iv, Q7D × 3
Description: as §3, §4

A549 NSCLC xenograft = assay: Example 4-D antitumor efficacy, ectopic A549 NSCLC xenograft model; format: in vivo, female nude mice (nu/nu); conditions: 40 mg/kg IP QD × 5/wk × 2 wks
From the text: as §1, §2, §3
(§5) The compounds were tested in another A549 model. The compounds were dosed as follows. Daily IP dosing: 5 doses then 2 days off then 5 more doses starting at 100 mm^3 tumors on day 1 (10 animals per group average tumor volume). The antitumor effects and the safety of administration are graphically illustrated below.

[7] = Example 4-D body weight change and lethal toxicity, A549 xenograft study; format: in vivo, female nude mice (nu/nu); conditions: 40 mg/kg IP QD × 5/wk × 2 wks
Description: as §3, §5

H460 NSCLC xenograft [8] = assay: Example 4-F antitumor efficacy, ectopic H460 NSCLC xenograft model; format: in vivo, female nude mice (nu/nu); conditions: ip
From the text: as §1, §2, §3
(§6) The compounds TH-2953 and TH-3040 were tested in a H460 model. The compounds were dosed as follows. A dose-dependent TH-2953 was given IP once, from 6.25 to 100 mg/kg, comparing with daily IP: 5 doses then 2 days off then 5 more doses starting at 100 mm^3 tumors on day 1 (10 animals per group average tumor volume). TH-3040 was administered IP once. The antitumor effects and the safety of administration are graphically illustrated below.

[9] = Example 4-F body weight change, H460 xenograft study; format: in vivo, female nude mice (nu/nu); conditions: ip
Description: as §3, §6

[10] = Pharmacokinetics of TH2953 in NU/NU mice with A549 and H460 xenografts; format: in vivo, Mouse/Nu-Foxn 1nu NU/NU mice; conditions: Nu-Foxn1nu NU/NU, mouse; for Kp: intraperitoneal, A549 tumor xenograft, 10 and 40 mg/kg ip; for AUC / Cmax / Tmax / half-life: plasma, ip
Description: The pharmacokinetics of TH2660, the active metabolite, following a single iintraperitoneal dose of TH2953 are shown below.
A549 and H460, following a single intraperitoneal dose of 10 and 40 mg/kg for A549 and 10 mg/kg for H460. TH2953 concentrations in the brain, liver and tumor were 55.0-73.8%, 297-541% and 2.08-8.34% of the concentrations in plasma in the A549 tumor xenograft. […] In the A549 xenograft, the preferential activation of TH2953 was more pronounced as the concentrations of TH2660 in the tumor were ˜5-7-fold greater than for TH2953, while they were only ˜13-15% in the liver.

[11] = 10 mg/kg, TH2953 10 mg/kg single ip, A549 xenograft
[12] = 10 mg/kg, TH2953 10 mg/kg single ip, H460 xenograft
[13] = 40 mg/kg, TH2953 40 mg/kg single ip, A549 xenograft

Compound: CC(OP(=O)(N1CC1)N1CC1)c1ccc([N+](=O)[O-])c(Oc2cccnc2)c1 (centres unmarked) [Compound 2852]
- IC50 (H460 cells): 0.02 µM
- TGD 500 [1]: >72 days
- TGI [1]: 95.1%
- Max. BW loss % [2]: 0.0%
- TGD 500 ([3]; 10 mpk): 3 days
- TGD 1000 ([3]; 10 mpk): 1 days
- inhibition in vivo at 10 mg/kg ([3]; Mus musculus, A-375, 10 mpk, read-out: TGI): 12.4%
- Max. BW loss % [4]: 2.6%

Compound: CC(=O)O[C@@]12CO[C@@H]1C[C@H](O)[C@@]1(C)C(=O)[C@H](O)C3=C(C)[C@@H](OC(=O)[C@H](O)[C@@H](NC(=O)OC(C)(C)C)c4ccccc4)C[C@@](O)([C@@H](OC(=O)c4ccccc4)[C@H]21)C3(C)C [Doectaxel, docetaxel, reference compound]
- TGD500, Days (vs. vehicle) (H460 NSCLC xenograft [5]; H460): 6 days
- TGD1000, Days (vs. vehicle) (H460 NSCLC xenograft [5]; H460): 9 days
- TGI (H460 NSCLC xenograft [5]; H460, 250 mm3 tumors on day 1): 51.3%
- Max. BW loss % [6]: 12.4%

Compound: CC(OP(=O)(N1CC1)N1CC1)c1ccc([N+](=O)[O-])c(Oc2ccc(-c3ccccc3)cc2)c1 (centres unmarked) [Compound 2953]
- IC50 (H460 cells): 0.005 µM
- TGD 500 (A549 NSCLC xenograft): 64 days
- TGI (A549 NSCLC xenograft): 93.8%
- Max. BW loss % [7]: 1.6%
- Lethal Tox ([7]; 10 animals per group): 0
- TGD 500 (H460 NSCLC xenograft [8]; 6.25 mpk, once): 16 days
- TGD 1000 (H460 NSCLC xenograft [8]; 6.25 mpk, once): 17 days
- TGI (H460 NSCLC xenograft [8]; 6.25 mpk, once): 72.2%
- TGD 500 (H460 NSCLC xenograft [8]; 12.5 mpk, once): 18 days
- TGD 1000 (H460 NSCLC xenograft [8]; 12.5 mpk, once): 21 days
- TGI (H460 NSCLC xenograft [8]; 12.5 mpk, once): 78.2%
- TGD 500 (H460 NSCLC xenograft [8]; 25 mpk, once): 18 days
- TGD 1000 (H460 NSCLC xenograft [8]; 25 mpk, once): 20 days
- TGI (H460 NSCLC xenograft [8]; 25 mpk, once): 86.1%
- TGD 500 (H460 NSCLC xenograft [8]; 40 mpk, QD × 5/wk × 2ks): 54 days
- TGD 1000 (H460 NSCLC xenograft [8]; 40 mpk, QD × 5/wk × 2ks): 65 days
- TGI (H460 NSCLC xenograft [8]; 40 mpk, QD × 5/wk × 2ks): 105.8%
- TGD 500 (H460 NSCLC xenograft [8]; 50 mpk, once): 19 days
- TGD 1000 (H460 NSCLC xenograft [8]; 50 mpk, once): 19 days
- TGI (H460 NSCLC xenograft [8]; 50 mpk, once): 90.4%
- TGD 500 (H460 NSCLC xenograft [8]; 100 mpk, once): 24 days
- TGD 1000 (H460 NSCLC xenograft [8]; 100 mpk, once): 27 days
- TGI (H460 NSCLC xenograft [8]; 100 mpk, once): 97.7%
- Max. BW loss % ([9]; 6.25 mpk, once): 0.0%
- Max. BW loss % ([9]; 12.5 mpk, once): 0.0%
- Max. BW loss % ([9]; 25 mpk, once): 0.2%
- Max. BW loss % ([9]; 40 mpk, QD × 5/wk × 2ks): 0.0%
- Max. BW loss % ([9]; 50 mpk, once): 0.0%
- Max. BW loss % ([9]; 100 mpk, once): 0.0%
- Kp ([10]; brain (relative to plasma), read-out: concentration in the brain as % of the concentrations in plasma): 0.55 to 0.738
- Kp ([10]; liver (relative to plasma), read-out: concentration in the liver as % of the concentrations in plasma): 2.97 to 5.41
- AUC [10, 11]: 4.43 µg·h/mL
- Cmax [10, 11]: 0.149 µg/mL
- Tmax [10, 11]: 0.5 h
- half-life [10, 11]: 1.67 h
- AUC [10, 12]: 7.4 µg·h/mL
- Cmax [10, 12]: 2.33 µg/mL
- Tmax [10, 12]: 0.25 h
- half-life [10, 12]: 2.37 h
- AUC [10, 13]: 39 µg·h/mL
- Cmax [10, 13]: 14.8 µg/mL
- Tmax [10, 13]: 0.5 h
- half-life [10, 13]: 1.52 h
- Kp ([10]; tumor (relative to plasma), read-out: concentration in the tumor as % of the concentrations in plasma): 0.0208 to 0.0834
